According to publication PMC4916434, “Evaluation of the inhibition potential of plumbagin against cytochrome P450 using LC-MS/MS and cocktail approach” (Scientific Reports, 2016):

Legend:
CYP2E1 = target: T1, CYP2E1 (Homo sapiens, UniProt P05181); experiment: CYP2E1 inhibition (chlorzoxazone 6-hydroxylation) in pooled human liver microsomes, cocktail LC-MS/MS; format: in vitro ADME
T1 construct: consisting of pooled HLMs (0.5 mg/ml) or RLMs (1 mg/ml) and an NADPH-regenerating system; tissue Corning Gentest Corporation; host or cells: pooled human liver microsomes (n = 20)
Protocol: (§1) Microsomal incubation was carried out at 37 °C in a mixture of 200 μl in 0.05 M Tris/HCl buffer (pH 7.4) consisting of pooled HLMs (0.5 mg/ml) or RLMs (1 mg/ml) and an NADPH-regenerating system including MgCl2 (5 mM), G6P (10 mM), G6PDH (0.4 U/ml) and NADP (1 mM). Substrates were added into the incubation mixture and obtained the final concentrations (10 μM phenacetin for CYP1A2, 20 μM bupropion for CYP2B1/6, 20 μM tolbutamide for CYP2C9/11, 5 μM dextromethorphan for CYP2D1/6, 20 μM chlorzoxazone for CYP2E1 and 10 μM midazolam for CYP3A2/4), which were close to Km respectively. The proportion of organic solvent was not higher than 1% (v/v) in the incubation mixture. After pre-incubation for 5 min, the reaction was initiated by addition of NADP. Incubations were performed for 20 min, stopped by adding 200 μl ice-cold acetonitrile. And then 20 μl internal standard solution was added (3-acetamidophenol 2 μg/ml, chlorpropamide 2 μg/ml and mebendazole 2 μg/ml). The solution was mixed thoroughly for 3 min and centrifuged for 10 min at 16,000 × g at 4 °C. The supernatant (60 μl) was transferred to autosampler vials, and 2 μl was injected into LC-MS/MS system.
(§2) The IC50 (concentration of inhibitor to cause 50% inhibition of original enzyme activity) values were determined with the same incubation condition above. The specific concentrations of plumbagin were ranged from 0.1 μM to 50 μM. The IC50 values were calculated by plotting relative activities over the logarithm of plumbagin concentrations using GraphPad Prism 5.0 (GraphPad software Inc., CA, USA).
(§3) Cocktail probe substrates were then added and incubated for 20 min. Reactions were stopped with 200 μl ice-cold acetonitrile. The samples were treated according to the microsomal incubation method and then injected into LC-MS/MS for analysis.
(§4) Kinetic studies were performed for determining the types of inhibition on CYP by plumbagin. Pooled HLMs (0.5 mg/ml) or RLMs (1 mg/ml) with plumbagin (1 μM, 2 μM, 5 μM and 10 μM) were incubated in 0.05 M Tris/HCl buffer (pH 7.4) for 20 min at 37 °C. A series of concentrations for cocktail probe substrates were used: 2.5–20 μM phenacetin for CYP1A2; 5–40 μM bupropion for CYP2B1/6; 5–40 μM tolbutamide for CYP2C9/11; 1.25–10 μM dextromethorphan for CYP2D1/6; 5–40 μM chlorzoxazone for CYP2E1; 2.5–80 μM midazolam for CYP3A2; and 0.625–5 μM midazolam for CYP3A4. Enzyme kinetics as well as statistical analysis were performed using GraphPad Prism 5.0.
(§5) All data were presented as mean ± SD. The IC50 values were fitted by non-linear regression analysis using GraphPad Prism 5.0. The kinetic parameters were obtained by fitting velocity data to kinetic models (Michaelis-Menten) using GraphPad Prism 5.0. The Lineweaver-Burk Plot (the reciprocal of reaction velocities versus the reciprocal of substrates concentrations) was used to determine the quality of fit to a specific inhibition model. The inhibition constant (Ki) was obtained by a secondary plot using the slopes of the primary Lineweaver-Burk Plot (Km/Vmax versus inhibitor concentrations). αKi was obtained from a secondary plot using the y-intercepts of the Lineweaver-Burk plot (1/Vmax versus inhibitor concentrations). All results were analyzed in quadruplicate. One-way analysis of variance was used to estimate the significance of differences. There was statistical significance between control and test groups if p < 0.05.

CYP2D1 = target: T2, CYP2D1 (Rattus norvegicus, UniProt P10633); format: in vitro ADME
T2 construct: consisting of pooled HLMs (0.5 mg/ml) or RLMs (1 mg/ml) and an NADPH-regenerating system; from tissue; host or cells: rat liver microsomes prepared in house
T2 sequence (P10633 1-504): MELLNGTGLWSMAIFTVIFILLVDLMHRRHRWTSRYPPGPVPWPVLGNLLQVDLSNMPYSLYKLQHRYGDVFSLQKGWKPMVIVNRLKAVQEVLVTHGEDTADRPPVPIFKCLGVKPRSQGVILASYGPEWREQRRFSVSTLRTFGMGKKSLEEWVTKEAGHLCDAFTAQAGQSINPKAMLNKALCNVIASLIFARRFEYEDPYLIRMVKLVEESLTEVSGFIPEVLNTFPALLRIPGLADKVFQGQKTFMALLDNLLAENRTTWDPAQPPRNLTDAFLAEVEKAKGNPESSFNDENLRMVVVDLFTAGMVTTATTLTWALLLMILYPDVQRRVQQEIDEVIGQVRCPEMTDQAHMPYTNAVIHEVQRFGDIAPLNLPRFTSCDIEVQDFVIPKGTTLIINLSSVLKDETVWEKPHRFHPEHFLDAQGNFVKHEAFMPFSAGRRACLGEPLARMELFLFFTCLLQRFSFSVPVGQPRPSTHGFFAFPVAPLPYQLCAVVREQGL
Protocol: In this study, the rats were fasted overnight and killed by cervical dislocation before removal of the liver. The liver was excised, rinsed with ice-cold saline (0.9% NaCl w/v), weighed and homogenized in a […] Tris/KCl buffer (pH 7.4). Subsequently, the homogenate was centrifuged at 10,000 × g at 4 °C for 30 min. The supernatant was then centrifuged at 105,000 × g at 4 °C for 60 min. The pellet was reconstituted with […] Tris/KCl buffer (pH 7.4) and stored at −150 °C until use. The protein concentration of the liver microsomes was determined by a protein quantitative assay using bicinchoninic acid[22].
as §1, §2, §3, §4
as §5, with “There was statistical significance between control and test groups if p < 0.05.” left out

T1 sequence (P05181 whole entry): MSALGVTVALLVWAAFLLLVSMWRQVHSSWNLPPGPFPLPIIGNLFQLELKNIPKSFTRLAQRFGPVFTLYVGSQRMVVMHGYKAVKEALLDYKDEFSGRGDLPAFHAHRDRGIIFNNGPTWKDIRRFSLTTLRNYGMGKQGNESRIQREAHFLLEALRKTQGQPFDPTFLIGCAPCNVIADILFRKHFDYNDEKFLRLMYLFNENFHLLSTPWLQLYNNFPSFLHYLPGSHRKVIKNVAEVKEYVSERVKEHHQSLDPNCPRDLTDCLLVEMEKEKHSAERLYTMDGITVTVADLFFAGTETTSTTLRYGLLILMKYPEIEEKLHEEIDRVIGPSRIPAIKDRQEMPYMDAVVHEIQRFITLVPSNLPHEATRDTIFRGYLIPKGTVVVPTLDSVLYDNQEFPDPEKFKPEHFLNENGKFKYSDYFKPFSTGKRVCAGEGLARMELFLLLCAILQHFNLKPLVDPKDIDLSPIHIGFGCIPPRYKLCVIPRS

CC1=CC(=O)c2c(O)cccc2C1=O [plumbagin, 5-hydroxy-2-methyl-1,4-naphthoquinone]
IC50 (CYP2E1): 6.54 µM
Ki (CYP2E1): 0.65 µM
Type of inhibition (CYP2E1): mixed-type
αKi (CYP2E1; HLMs, secondary plot of y-intercepts, chlorzoxazone 5-40 μM): 2.64 µM
α (CYP2E1; human, 20 min, pH 7.4): 0.25
IC50 (CYP2D1): 6.17 µM
Ki (CYP2D1): 9.49 µM
Type of inhibition (CYP2D1): mixed-type
α (CYP2D1): 0.69
αKi (CYP2D1): 13.79 µM
